Data from publication PMC9329436, “Optimization of the 4-anilinoquin(az)oline scaffold as epidermal growth factor receptor (EGFR) inhibitors for chordoma utilizing a toxicology profiling assay platform” (Scientific Reports, 2022).
Like-named read-outs stand apart in the source and are kept apart here.

Assays:
Type in all cases: biochemical
[1] = target: 320 wild-type protein kinases (Homo sapiens, UniProt P50750); conditions: singlicate
From the text: (§1) Table S4. Profiling of two compounds at two concentrations against 320 wild-type protein kinases; singlicate measurement; Residual activities (% of control).

[2] = target: 320 wild-type protein kinases (Homo sapiens, UniProt Q15375); conditions: singlicate
From the text: as §1

[3] = target: 320 wild-type protein kinases (Homo sapiens, UniProt Q6IQ55); conditions: kinase TTBK2, singlicate
From the text: as §1

[4] = target: 320 wild-type protein kinases (Homo sapiens, UniProt Q9HAZ1); conditions: singlicate
From the text: as §1

[5] = target: 320 wild-type protein kinases (Homo sapiens, UniProt Q16288); conditions: kinase TRK-C, singlicate
From the text: as §1

[6] = target: 320 wild-type protein kinases (Homo sapiens, UniProt Q13153); conditions: singlicate
From the text: as §1

[7] = target: 320 wild-type protein kinases (Homo sapiens, UniProt Q16584); conditions: singlicate
From the text: as §1

[8] = target: T1, 320 wild-type protein kinases (Homo sapiens, UniProt Q92630); conditions: singlicate
T1 sequence (Q92630 1-601): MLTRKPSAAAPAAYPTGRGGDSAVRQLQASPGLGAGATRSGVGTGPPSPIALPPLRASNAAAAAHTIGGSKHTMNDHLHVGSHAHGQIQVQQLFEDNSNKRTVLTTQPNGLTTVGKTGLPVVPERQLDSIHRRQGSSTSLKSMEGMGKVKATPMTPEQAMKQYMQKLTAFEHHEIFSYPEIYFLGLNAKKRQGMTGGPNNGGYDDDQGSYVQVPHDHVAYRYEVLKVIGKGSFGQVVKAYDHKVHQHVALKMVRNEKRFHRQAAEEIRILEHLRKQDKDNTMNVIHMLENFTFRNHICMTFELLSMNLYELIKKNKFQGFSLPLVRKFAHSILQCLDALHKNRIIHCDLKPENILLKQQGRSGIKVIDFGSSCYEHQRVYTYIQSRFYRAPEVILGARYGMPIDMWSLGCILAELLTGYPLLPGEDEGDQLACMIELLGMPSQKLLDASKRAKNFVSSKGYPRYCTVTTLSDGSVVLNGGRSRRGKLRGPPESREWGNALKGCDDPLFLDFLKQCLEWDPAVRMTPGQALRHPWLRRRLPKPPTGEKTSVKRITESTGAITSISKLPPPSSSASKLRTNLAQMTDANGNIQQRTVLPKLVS
From the text: as §1

[9] = target: 320 wild-type protein kinases (Homo sapiens, UniProt P80192); conditions: singlicate
From the text: as §1

[10] = target: 320 wild-type protein kinases (Homo sapiens, UniProt Q02779); conditions: singlicate
From the text: as §1

[11] = target: T2, 320 wild-type protein kinases (Homo sapiens, UniProt O60285); conditions: singlicate
T2 sequence (O60285 1-661): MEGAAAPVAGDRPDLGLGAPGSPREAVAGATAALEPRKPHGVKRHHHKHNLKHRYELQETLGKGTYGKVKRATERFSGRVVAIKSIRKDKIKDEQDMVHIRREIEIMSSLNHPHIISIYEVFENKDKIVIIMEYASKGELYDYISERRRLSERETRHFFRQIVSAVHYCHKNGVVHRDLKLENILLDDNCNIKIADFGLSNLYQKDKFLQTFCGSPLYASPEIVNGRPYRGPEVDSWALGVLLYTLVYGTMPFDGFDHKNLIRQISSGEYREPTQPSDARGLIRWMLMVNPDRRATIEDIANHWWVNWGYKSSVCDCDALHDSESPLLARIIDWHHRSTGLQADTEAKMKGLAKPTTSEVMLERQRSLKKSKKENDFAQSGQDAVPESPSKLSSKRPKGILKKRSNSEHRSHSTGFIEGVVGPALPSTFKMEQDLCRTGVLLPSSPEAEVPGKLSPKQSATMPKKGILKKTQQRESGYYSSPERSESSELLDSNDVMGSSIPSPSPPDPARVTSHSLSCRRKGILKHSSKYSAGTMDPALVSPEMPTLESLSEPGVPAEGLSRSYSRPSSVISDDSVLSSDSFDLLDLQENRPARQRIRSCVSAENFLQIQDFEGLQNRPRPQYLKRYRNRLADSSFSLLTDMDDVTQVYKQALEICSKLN
From the text: as §1

[12] = target: 320 wild-type protein kinases (Homo sapiens, UniProt P78362); conditions: kinase SRPK2, singlicate
From the text: as §1

Chain of 320 wild-type protein kinases (Homo sapiens, UniProt Q13153) (Q13153 whole entry): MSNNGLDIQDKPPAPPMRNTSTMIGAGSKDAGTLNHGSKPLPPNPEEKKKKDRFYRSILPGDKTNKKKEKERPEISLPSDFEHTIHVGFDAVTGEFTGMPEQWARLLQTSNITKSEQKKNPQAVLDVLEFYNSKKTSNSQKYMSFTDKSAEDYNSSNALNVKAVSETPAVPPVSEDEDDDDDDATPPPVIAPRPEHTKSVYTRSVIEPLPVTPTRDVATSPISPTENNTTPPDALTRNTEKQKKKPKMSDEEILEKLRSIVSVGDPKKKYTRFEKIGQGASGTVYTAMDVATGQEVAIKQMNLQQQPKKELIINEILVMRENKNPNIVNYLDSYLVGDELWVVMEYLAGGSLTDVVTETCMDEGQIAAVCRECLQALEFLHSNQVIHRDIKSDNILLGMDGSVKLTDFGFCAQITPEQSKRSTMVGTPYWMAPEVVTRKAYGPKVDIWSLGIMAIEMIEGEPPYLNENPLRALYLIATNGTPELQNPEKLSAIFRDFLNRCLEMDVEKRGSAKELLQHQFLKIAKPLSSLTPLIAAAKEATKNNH
Chain of 320 wild-type protein kinases (Homo sapiens, UniProt Q15375) (Q15375 28-998): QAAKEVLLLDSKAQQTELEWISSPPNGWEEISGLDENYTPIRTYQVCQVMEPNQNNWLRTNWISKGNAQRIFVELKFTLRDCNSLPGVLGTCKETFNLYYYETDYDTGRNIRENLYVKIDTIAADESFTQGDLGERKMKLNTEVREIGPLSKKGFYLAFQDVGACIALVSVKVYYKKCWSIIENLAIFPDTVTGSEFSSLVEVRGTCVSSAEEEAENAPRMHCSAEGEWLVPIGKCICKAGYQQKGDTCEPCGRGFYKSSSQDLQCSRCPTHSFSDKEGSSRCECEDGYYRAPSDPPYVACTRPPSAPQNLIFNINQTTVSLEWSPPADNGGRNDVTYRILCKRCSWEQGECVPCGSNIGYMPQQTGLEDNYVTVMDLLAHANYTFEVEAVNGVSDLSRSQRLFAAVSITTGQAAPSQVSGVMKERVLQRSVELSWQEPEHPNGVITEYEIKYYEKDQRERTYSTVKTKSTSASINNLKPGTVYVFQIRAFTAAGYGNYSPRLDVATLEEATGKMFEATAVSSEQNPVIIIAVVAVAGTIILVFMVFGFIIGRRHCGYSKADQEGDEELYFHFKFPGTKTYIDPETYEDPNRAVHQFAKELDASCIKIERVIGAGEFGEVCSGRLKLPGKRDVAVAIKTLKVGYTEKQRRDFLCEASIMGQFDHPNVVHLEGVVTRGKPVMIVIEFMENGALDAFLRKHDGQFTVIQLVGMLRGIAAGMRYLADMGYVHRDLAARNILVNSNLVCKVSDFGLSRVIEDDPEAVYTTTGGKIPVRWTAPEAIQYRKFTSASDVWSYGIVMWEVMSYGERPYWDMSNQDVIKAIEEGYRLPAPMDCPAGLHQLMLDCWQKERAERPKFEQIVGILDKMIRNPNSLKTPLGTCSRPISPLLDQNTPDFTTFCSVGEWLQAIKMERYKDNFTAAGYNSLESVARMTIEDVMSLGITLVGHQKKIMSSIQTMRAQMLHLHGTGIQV
Chain of 320 wild-type protein kinases (Homo sapiens, UniProt Q16584) (Q16584 whole entry): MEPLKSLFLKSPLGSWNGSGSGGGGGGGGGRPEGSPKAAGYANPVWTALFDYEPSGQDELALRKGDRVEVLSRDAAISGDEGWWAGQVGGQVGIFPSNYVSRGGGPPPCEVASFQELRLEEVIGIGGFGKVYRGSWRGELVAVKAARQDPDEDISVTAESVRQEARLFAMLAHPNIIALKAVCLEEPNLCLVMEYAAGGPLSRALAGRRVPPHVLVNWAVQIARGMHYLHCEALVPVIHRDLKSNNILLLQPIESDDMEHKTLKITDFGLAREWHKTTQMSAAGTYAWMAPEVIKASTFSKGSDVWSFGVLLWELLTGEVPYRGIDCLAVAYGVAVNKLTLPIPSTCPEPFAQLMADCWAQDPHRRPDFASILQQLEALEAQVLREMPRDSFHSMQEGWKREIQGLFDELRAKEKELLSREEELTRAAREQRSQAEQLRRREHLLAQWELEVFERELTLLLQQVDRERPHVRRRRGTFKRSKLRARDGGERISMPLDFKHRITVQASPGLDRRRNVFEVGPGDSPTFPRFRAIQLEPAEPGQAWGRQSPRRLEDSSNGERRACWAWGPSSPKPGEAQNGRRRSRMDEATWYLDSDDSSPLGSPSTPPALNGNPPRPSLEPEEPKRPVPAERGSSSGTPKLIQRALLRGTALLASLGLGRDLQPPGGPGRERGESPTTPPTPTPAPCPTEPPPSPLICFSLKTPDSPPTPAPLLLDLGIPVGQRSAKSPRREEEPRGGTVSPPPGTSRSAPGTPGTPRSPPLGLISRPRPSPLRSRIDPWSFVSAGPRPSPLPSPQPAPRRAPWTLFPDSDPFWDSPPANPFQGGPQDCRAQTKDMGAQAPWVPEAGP
Chain of 320 wild-type protein kinases (Homo sapiens, UniProt P78362) (P78362 whole entry): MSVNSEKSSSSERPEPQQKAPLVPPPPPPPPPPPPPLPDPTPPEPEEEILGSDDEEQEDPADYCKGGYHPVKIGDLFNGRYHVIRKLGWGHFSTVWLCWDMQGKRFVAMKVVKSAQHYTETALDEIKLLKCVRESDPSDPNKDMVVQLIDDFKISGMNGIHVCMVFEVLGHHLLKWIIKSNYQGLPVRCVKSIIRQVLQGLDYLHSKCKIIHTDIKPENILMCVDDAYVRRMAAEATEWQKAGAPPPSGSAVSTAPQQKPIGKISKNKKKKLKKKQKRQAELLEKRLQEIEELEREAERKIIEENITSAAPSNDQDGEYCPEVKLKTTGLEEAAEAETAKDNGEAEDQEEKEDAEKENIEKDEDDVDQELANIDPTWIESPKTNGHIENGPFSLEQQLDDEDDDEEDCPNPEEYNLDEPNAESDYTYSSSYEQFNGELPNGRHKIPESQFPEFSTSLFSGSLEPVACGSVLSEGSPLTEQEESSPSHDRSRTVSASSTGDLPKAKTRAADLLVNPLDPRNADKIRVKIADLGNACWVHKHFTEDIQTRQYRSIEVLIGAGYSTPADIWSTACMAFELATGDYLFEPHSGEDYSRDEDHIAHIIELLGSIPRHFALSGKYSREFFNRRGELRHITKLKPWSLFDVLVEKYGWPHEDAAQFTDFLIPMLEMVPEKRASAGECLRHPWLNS
Chain of 320 wild-type protein kinases (Homo sapiens, UniProt Q9HAZ1) (Q9HAZ1 whole entry): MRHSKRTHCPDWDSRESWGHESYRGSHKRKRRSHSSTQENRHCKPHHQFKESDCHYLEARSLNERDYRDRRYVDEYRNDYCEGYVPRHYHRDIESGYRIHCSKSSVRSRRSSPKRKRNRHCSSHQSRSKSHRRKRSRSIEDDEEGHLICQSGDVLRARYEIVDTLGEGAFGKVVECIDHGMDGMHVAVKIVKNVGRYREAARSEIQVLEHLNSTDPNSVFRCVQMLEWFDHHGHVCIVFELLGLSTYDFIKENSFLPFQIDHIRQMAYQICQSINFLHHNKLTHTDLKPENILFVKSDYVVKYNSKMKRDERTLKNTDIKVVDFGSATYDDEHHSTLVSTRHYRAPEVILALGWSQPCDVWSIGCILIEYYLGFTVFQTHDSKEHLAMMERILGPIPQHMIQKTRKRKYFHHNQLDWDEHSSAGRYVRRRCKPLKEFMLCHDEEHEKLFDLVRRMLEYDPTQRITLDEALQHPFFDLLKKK
Chain of 320 wild-type protein kinases (Homo sapiens, UniProt P80192) (P80192 whole entry): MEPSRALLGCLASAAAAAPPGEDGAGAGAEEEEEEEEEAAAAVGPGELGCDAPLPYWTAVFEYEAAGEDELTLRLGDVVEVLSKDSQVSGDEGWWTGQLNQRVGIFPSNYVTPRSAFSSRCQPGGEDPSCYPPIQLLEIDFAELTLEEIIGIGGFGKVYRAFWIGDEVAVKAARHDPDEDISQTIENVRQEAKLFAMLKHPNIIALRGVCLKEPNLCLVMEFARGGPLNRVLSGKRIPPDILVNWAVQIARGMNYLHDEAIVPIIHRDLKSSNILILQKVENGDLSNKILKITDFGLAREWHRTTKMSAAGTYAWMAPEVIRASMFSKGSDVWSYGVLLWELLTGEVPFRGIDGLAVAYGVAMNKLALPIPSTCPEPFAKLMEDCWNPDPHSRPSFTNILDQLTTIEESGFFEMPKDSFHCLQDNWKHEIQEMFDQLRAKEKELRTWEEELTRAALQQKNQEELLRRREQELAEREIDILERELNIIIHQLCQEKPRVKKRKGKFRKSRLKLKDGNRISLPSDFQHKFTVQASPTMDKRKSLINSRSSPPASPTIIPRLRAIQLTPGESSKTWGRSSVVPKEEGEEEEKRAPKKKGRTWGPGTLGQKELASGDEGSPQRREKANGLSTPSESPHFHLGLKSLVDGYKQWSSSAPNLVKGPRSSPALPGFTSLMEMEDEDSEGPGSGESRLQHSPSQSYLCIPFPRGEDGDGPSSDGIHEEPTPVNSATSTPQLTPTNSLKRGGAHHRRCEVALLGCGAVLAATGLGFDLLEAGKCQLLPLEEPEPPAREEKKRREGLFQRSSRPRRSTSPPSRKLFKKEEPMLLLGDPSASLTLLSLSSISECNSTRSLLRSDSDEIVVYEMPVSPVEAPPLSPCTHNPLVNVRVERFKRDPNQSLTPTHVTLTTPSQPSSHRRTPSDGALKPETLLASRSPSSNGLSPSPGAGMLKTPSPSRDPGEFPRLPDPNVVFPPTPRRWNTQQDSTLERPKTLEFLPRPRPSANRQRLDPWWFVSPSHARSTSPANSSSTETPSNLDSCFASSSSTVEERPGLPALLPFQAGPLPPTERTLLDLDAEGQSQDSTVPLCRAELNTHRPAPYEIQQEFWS
Chain of 320 wild-type protein kinases (Homo sapiens, UniProt P50750) (P50750 whole entry): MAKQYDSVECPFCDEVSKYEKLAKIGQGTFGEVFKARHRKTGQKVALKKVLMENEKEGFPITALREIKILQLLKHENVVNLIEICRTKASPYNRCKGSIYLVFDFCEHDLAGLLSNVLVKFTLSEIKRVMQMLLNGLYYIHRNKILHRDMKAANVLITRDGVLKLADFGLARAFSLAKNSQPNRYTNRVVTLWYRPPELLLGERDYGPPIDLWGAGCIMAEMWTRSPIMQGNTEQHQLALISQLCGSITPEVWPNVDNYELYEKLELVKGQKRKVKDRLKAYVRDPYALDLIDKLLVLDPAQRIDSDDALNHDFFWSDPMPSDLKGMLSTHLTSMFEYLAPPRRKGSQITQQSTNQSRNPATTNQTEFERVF

Structure (SMILES) | Residual activity ([1]; CDK9/CycK, 1.0E-06 M) | Residual activity ([1]; CDK9/CycK, 1.0E-07 M) | Residual activity ([1]; CDK9/CycT1, 1.0E-06 M) | Residual activity ([1]; CDK9/CycT1, 1.0E-07 M) | Residual activity ([2]; EPHA7, 1.0E-06 M) | Residual activity ([2]; EPHA7, 1.0E-07 M) | Residual activity, TTBK2 ([3]; assay conc. 1.0E-06 M) | Residual activity, TTBK2 ([3]; assay conc. 1.0E-07 M) | Residual activity ([4]; CLK4, 1.0E-06 M) | Residual activity ([4]; CLK4, 1.0E-07 M) | Residual activity, TRK-C ([5]; assay conc. 1.0E-06 M) | Residual activity, TRK-C ([5]; assay conc. 1.0E-07 M) | Residual activity ([6]; PAK1, 1.0E-06 M) | Residual activity ([6]; PAK1, 1.0E-07 M) | Residual activity ([7]; MAP3K11, 1.0E-06 M) | Residual activity ([7]; MAP3K11, 1.0E-07 M) | Residual activity ([8]; DYRK2, 1.0E-06 M) | Residual activity ([8]; DYRK2, 1.0E-07 M) | Residual activity ([9]; MAP3K9, 1.0E-06 M) | Residual activity ([9]; MAP3K9, 1.0E-07 M) | also measured
C#Cc1cc(Nc2ncnc3cc(I)ccc23)ccc1Cl [Compound 41] | 80 % of control | 99 % of control | 92 % of control | 95 % of control | 94 % of control | 85 % of control | 101 % of control | 102 % of control | 112 % of control | 111 % of control | 105 % of control | 115 % of control | 92 % of control | 87 % of control | 73 % of control | 75 % of control | 61 % of control | 84 % of control | 87 % of control | 97 % of control | Residual activity ([10]; MAP3K10, 1.0E-06 M): 93 % of control; Residual activity ([10]; MAP3K10, 1.0E-07 M): 102 % of control; Residual activity ([11]; ARK5, 1.0E-06 M): 108 % of control; Residual activity ([11]; ARK5, 1.0E-07 M): 110 % of control; Residual activity, SRPK2 ([12]; assay conc. 1.0E-06 M): 115 % of control; Residual activity, SRPK2 ([12]; assay conc. 1.0E-07 M): 131 % of control
C#Cc1cc(Nc2ncnc3cc(OC)c(OC)cc23)ccc1Cl [Compound 45] | 86 % of control | 103 % of control | 88 % of control | 90 % of control | 58 % of control | 84 % of control | 95 % of control | 96 % of control | 69 % of control | 100 % of control | 113 % of control | 136 % of control | 95 % of control | 91 % of control | 59 % of control | 79 % of control | 71 % of control | 89 % of control | 61 % of control | 92 % of control | Residual activity ([10]; MAP3K10, 1.0E-06 M): 86 % of control; Residual activity ([10]; MAP3K10, 1.0E-07 M): 92 % of control; Residual activity ([11]; ARK5, 1.0E-06 M): 114 % of control; Residual activity ([11]; ARK5, 1.0E-07 M): 104 % of control; Residual activity, SRPK2 ([12]; assay conc. 1.0E-06 M): 151 % of control; Residual activity, SRPK2 ([12]; assay conc. 1.0E-07 M): 115 % of control
